Experimental data as given in patent publication US20140370520A1, “METHODS AND COMPOUNDS FOR DETECTING CANCER” (University College Cardiff Constultants Limited, priority 2010, published 2014).
Several values for one entry are separate records, joined by “and”; a condition that tells them apart may be missing. Equal values may be shown once. One block for each compound: values may come before it.

How the values were obtained:
[1] = target: T1, hNQO1 (Homo sapiens, UniProt P15559); assay: Activity of 4-MU and Lactone with hNQO1; assay type: biochemical; settings: 0.1 mM, NADH 0.5 mM, hNQO1, phosphate buffer pH 7, 37° C. (FIG. 6)
T1 sequence (P15559 whole entry): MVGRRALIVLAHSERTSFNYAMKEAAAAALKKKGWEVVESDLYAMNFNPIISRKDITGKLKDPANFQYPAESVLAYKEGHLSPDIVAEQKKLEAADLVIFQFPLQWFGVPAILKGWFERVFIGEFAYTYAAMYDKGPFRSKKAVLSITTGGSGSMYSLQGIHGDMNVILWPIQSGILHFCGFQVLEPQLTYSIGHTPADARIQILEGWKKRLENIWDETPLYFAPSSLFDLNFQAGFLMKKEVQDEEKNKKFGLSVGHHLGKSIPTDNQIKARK
Protocol: This experiment was performed to ensure the products of activation were not further metabolised by hNQO1. HPLC was carried out on samples containing 4-MU and Lactone (0.1 mM), NADH (0.5 mM) and hNQO1 (0.2 μg) in phosphate buffer (10 mM, pH 7) using a 1-99% acetonitrile gradient and a 2 μl injection volume. Temperature was maintained at 37° C.

[2] = Stability of MTL8-252 in PBS and cell culture media with or without FBS; assay type: physicochemical
Description: Possible source is from FBS added in media.

[3] = target: T1, hNQO1; assay: Evaluation of MTL8-252 activity with human NQO1 (HPLC/UPLC, UV and fluorescence detection); assay type: biochemical
Protocol: Initial HPLC was carried out on samples containing MTL8-252 (0.1 mM), NADH (0.5 mM) and 0.5 μg/ml hNQO1 in phosphate buffer (10 mM, pH 7) using a 1-99% acetonitrile gradient and a 1 μl injection volume. Temperature was maintained at 37° C.
Reduction of the parent compound was rapid as most of it had disappeared by the second injection. […] The rate of reduction in MTL8-252 concentration was calculated at 5.9 μM/min and when the concentration of the enzyme was halved the rate reduced to 1.5 μM/min
By altering the settings of the FL Plus detector (Low PMT voltage, λex 410 nm, λem 550 nm) and calibrating for 4-MU measurements by establishing a calibration graph it can be seen that there was a linear response to 4-MU up to at least 200 μM. The maximum concentration used in incubation experiments is 100 μM, final.
Following calibration of the instrument, a repeat experiment of the activation of MTL8-252 by hNQO1 was carried out resulting in calculated rates of loss of MTL8-252 and formation of 4-MU (see FIG. 4). Rate loss of MTL8-252 was 8.41 uM/min and that corresponding to 4-MU formation determined by fluorescence was 13.51 uM/min.

[4] = Solubility of MTL8-252 in NMP and DMSO; assay type: physicochemical
Protocol: NMP Solubility: A solution of the product of Example 3D (MTL8-252) was prepared in NMP and further diluted to 0.1M in NMP. The purity of the compound was assessed via uplc using a 1-99% Acetonitrile gradient. Injection volumes of 0.5 μl, 1 μl, 2 μl, 3 μl and 5 μl were used. Purity was determined to be almost 100% based on uv data at 265 nm. The FL Plus settings were (high PMT voltage, λex 410 nm and λem 550 nm, off peak). Only a single peak with retention time of approx 4.3 min was detected. MTL8-252 was equally very soluble in DMSO.
A similar result was obtained for the diluted DMSO stock. Subsequent experiments utilised 0.1M diluted stock in 10 mM phosphate buffer, pH 7.0 and injected directly onto the uplc column

[5] = target: T1, hNQO1; assay: Evaluation of MTL8-252 activity with human NQO1 (HPLC/UPLC, UV and fluorescence detection); assay type: biochemical; remark: listed apart in the source
[6] = target: T2, Human NQO1 expressing cells (HDT7) (Homo sapiens, UniProt P15559); assay: MTL8-252 incubation with cultured cells, luminescence spectrophotometric determination of 4-MU; assay type: cell-based
T2 construct: expressed in transfected cells; host or cells: HDT7 (engineered NQO1-producing cell line; F179 is the null control)
T2 sequence (P15559 whole entry): as above
Protocol: (§1) Human NQO1 expressing cells (HDT7) and null expressing cells (F179) were cultured in Eagle's MEM medium enriched with non-essential amino acids and 10% FBS. Cells were harvested in exponential growing phase and suspended in cold PBS @ 5×10^6 cells/ml. 100 ul of cell suspension (5×10^5 cells) were added to 3 ml PBS containing 10 uM MTL8-252 at 37° C. in a fluorimeter cuvette and the rate of increase in fluorescence intensity (attributed to 4-MU release), measured over 3 minutes. Control experiment contained substrate alone in PBS.
(§2) The Luminescence Spectrophotometer settings were as follows: λex=360 nm; λem=452 @ 37° C.

[7] = system: null expressing cells (F179); assay: as above; assay type: cell-based; settings: F179 2.5×10^5 cells/mL, luminescence spectrophotometer
Protocol: as §1, §2

[8] = Control experiment: substrate alone without cells, 4-MU release; assay type: physicochemical
[9] = system: null expressing cell line F179; assay: MTL8-252 incubation with cultured cells, uplc separation followed by FL-Plus detection; assay type: cell-based; settings: MTL8-252 10 μM in PBS, 5×10^5 cells/mL
Protocol: (§3) Cells in exponential growth phase were harvested and resuspended in cold PBS at 5×10^6 cells/ml. 100 ul of cell suspension (5×10^5 cells) were added to 1 ml PBS containing 10 uM MTL8-252 at 37° C. and incubated for the following time periods: 0, 5, 30 and 60 min. The reaction was stopped by spinning down cells at 13,000 rpm for 30 seconds and the cell free extract injected (2 ul) directly unto the uplc.

[10] = target: T3, hDT7 NQO1-expressing cell line (Homo sapiens, UniProt P15559); assay: as above; assay type: cell-based
T3 construct: expressed in transfected cells; host or cells: HDT7 (engineered NQO1-producing cell line; F179 is the null control)
T3 sequence (P15559 whole entry): as above
Protocol: as §3

[11] = Stability of MTL8-252 in NMP and sodium phosphate buffer; assay type: physicochemical
Protocol: Stability of 0.1M MTL8-252 in NMP was assessed over a 2-hour period at 37° C. The compound appeared stable as evidenced by the fact that the uv absorbance peak area remained substantially unchanged. […] A similar experiment was carried out with DMSO stock diluted in 10 mM sodium phosphate buffer.

[12] = target: T4, hNQO2 in PC3 cells (Homo sapiens, UniProt P16083); assay: Discrimination between NQO1 and NQO2 activity in PC3 cells with co-substrate EP-0152R; assay type: cell-based; settings: 5×10^5 PC-3 cells, 10 uM MTL8-252, 100 uM EP-0152R, 37° C., 5 min (FIG. 14)
T4 construct: Prostate carcinoma cells (as exemplified by PC3 cells) express both NQO1 and NQO2 activity; endogenous in cells; host or cells: PC3 (PC-3) human prostate cancer cell line
T4 sequence (P16083 1-231): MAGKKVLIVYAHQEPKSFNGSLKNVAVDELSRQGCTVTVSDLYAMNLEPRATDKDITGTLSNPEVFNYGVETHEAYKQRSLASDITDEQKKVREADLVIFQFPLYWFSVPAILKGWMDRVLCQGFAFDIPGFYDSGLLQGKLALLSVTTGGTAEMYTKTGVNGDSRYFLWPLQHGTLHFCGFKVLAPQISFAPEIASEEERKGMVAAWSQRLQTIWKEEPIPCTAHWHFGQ
Protocol: Prostate carcinoma cells (as exemplified by PC3 cells) express both NQO1 and NQO2 activity. However, the latter is only activated by the presence of a co-substrate not naturally present in the cells (EP-0152R, 1-carbamoylmethyl-3-carbamoyl-1,4-dihydronicotinamide).
To 440 ul of PBS containing 5×10^5 PC-3 cells pre-incubated at 37° C. for 5 min was added 10 uM MTL8-252 fluorogenic substrate in DMSO (final, 10 ul) and volume adjusted to 500 ul with PBS. After incubating for a further 5 min the mixture was syringe filtered as above and 2 ul of supernatant analysed by uplc as described earlier. The reaction on the same number of cells was repeated with the inclusion of 100 uM EP-0152R (50 ul) as co-substrate during incubation. The reaction mixture was filtered and analysed as above. […] In the former instance, where NQO1 and NQO2 are expressed, the supplemented assay can be used to provide a stronger assay signal and in the latter instance, where only NQO2 is expressed, the supplemented assay can be used to detect hNQO2 expressing cancers only.

[13] = repeat experiment after calibration (FIG. 4)
[14] = replots of UV data at 210 nm (FIG. 5)

substrate of / stability in the presence of hNQO1 [1]: not substrates of hNQO1
substrate of / stability in the presence of hNQO1 ([1]; listed as lactone): stable in the presence of hNQO1
Compound: Cc1c(C)c2c(c(C)c1O)C(C)(C)CC(=O)O2 [Lactone, 6-Hydroxy-4,4,5,7,8-pentamethyl-1-benzopyran-2-one]

substrate of / stability in the presence of hNQO1 [1]: not substrates of hNQO1
substrate of / stability in the presence of hNQO1 ([1]; listed as 4 MU): stable in the presence of hNQO1
Compound: Cc1cc(=O)oc2cc(O)ccc12 [Compound 4-MU, 4-methylumbelliferone, reference compound]

stability in PBS (FIG. 9) ([2]; PBS): very stable
stability in media without FBS (FIG. 9) ([2]; media without FBS): very stable
rate of disappearance of Compound (FIG. 4) ([3]; MTL8-252 100 μM, hNQO1 0.2 μg/mL, NADH 500 μM, UPLC): 13.51 µM/min
reduction in the area of the peak without enzyme ([3]; MTL8-252 alone or with NADH alone (FIG. 3)): No significant reduction
rate of appearance of 4 MU (FIG. 5) ([3]; UV at 210 nm, hNQO1 and NADH): 11.5 µM/min
rate of appearance of the lactone (FIG. 5) ([3]; UV at 210 nm, hNQO1 and NADH): 9.84 µM/min
rate of disappearance of MTL8-252 (FIG. 5) ([3]; UV at 210 nm, hNQO1 and NADH): 8.41 µM/min
rate of appearance of 4 MU (FIG. 4) ([3]; detected by fluorescence, MTL8-252 100 μM, hNQO1 0.2 μg/mL, NADH 500 μM): 8.41 µM/min
Rate of formation of Lactone (n = 2) ([3]; initial rates, MTL8-252 0.1 mM, NADH 0.5 mM, hNQO1, pH 7, 37° C.): 9.84 µM/min and 7.61 µM/min
Rate of formation of 4-MU @ 210 nm (n = 2) ([3]; initial rates, UV 210 nm, MTL8-252 0.1 mM, NADH 0.5 mM, hNQO1, pH 7, 37° C.): 11.48 µM/min and 6.0 µM/min
Rate of formation of 4-MU by FL (n = 2) ([3]; initial rates, fluorescence detection, MTL8-252 0.1 mM, NADH 0.5 mM, hNQO1, pH 7, 37° C.): 13.51 µM/min and 6.90 µM/min
4-MU formation determined by fluorescence [3, 13]: 13.51 µM/min
Rate loss of MTL8-252 [3, 13]: 8.41 µM/min
initial rate of formation of 4-MU [3, 14]: 11.48 µM/min
initial rate of formation of lactone [3, 14]: 9.84 µM/min
substrate for hNQO1 ([3]; with NADH, pH 7, 37° C.): excellent substrate for hNQO1
solubility in DMSO [4]: very soluble
rate of reduction in MTL8-252 concentration ([5]; 0.2 μg/ml hNQO1, NADH): 5.9 µM/min
rate of reduction in MTL8-252 concentration ([5]; concentration of the enzyme halved (0.10 μg/mL hNQO1)): 1.5 µM/min
increase in 4-MU formation rate, HDT7 compared with null expressing cells (F179) ([6]; FIG. 7, luminescence spectrophotometer): at least 5 fold
rate of formation of 4 MU in the hDT7 cells (FIG. 7) ([6]; hDT7 2.5×10^5 cells/mL, luminescence spectrophotometer): 0.83 nmol/min
increase in activity of hNQO1 expressing cells over null expressing cells (initial rate) ([10]; FIG. 8, uplc FL-Plus): about 100 fold
initial rate of release of 4 MU in hDT7 cells (FIG. 8) ([10]; MTL8-252 10 μM in PBS, 5×10^5 cells/mL, FL-Plus λex=360 nm λem=450 nm): 6.1 µM/min
release of 4-methylumbelliferone (4-MU) in NMP ([11]; 0.1M in NMP, 2-hour period at 37° C.): No detectable release
Stability in NMP ([11]; 0.1M in NMP, 2-hour period at 37° C., uv absorbance peak area): stable
stability in 10 mM sodium phosphate buffer, time stable ([11]; DMSO stock diluted in 10 mM sodium phosphate buffer (FIG. 2)): at least 1 hr
stability in phosphate buffer, time stable ([11]; phosphate buffer (10 mM), 37° C., monitored 75 mins (FIG. 2)): at least 1 hour
increase in the formation of 4-MU by addition of hNQO2 selective co-substrate [12]: 1.2 fold
Compound: CC1=C(C)C(=O)C(C(C)(C)CC(=O)Oc2ccc3c(C)cc(=O)oc3c2)=C(C)C1=O [MTL8-252, 4-Methyl-2-oxo-2H-chromen-7-yl-3-methyl-3-(2,4,5-trimethyl-3,6-dioxocyclohexa-1,4-dienyl)butanoate]
stability in cell culture medium (FIG. 9) ([2]; PBS replaced with cell culture medium, possible source FBS): other components in the media can reduce MTL8-252
Rate of decrease in MTL8-252 concentration (n = 4) ([3]; initial rates, MTL8-252 0.1 mM, NADH 0.5 mM, hNQO1, phosphate buffer 10 mM pH 7, 37° C.): 5.9 µM/min and 6.21 µM/min and 8.41 µM/min and 9.05 µM/min
rate of formation of 4 MU in the F179 cells (FIG. 7) [7]: 0.18 nmol/min
rate of release of 4 MU from the control experiment (FIG. 8) ([8]; MTL8-252 10 μM in PBS alone): 0.002 µM/min
rate of formation of 4 MU in the urine alone (FIG. 7) ([8]; compound in urine alone, no cells): 0.32 nmol/min
initial rate of release of 4 MU in F179 cells (FIG. 8) [9]: 0.068 µM/min
